Among the data in patent US11464770B2, “Anticancer pharmaceutical composition” (NATIONAL CANCER CENTER, priority 2016, dated 2022) are IC50 values, retold here.

Experiment [1] has as its system ovarian cancer cell lines. In words: Cell based assay, cell viability (CellTiter-Glo), ovarian cancer cell lines. The conditions noted are these: Homo sapiens; OVCAR-3 cells. The method, then:
(§1) Commercially available bladder cancer, prostate cancer, lung cancer, breast cancer, blood cancer, pancreatic cancer, colorectal cancer, brain cancer, neuroblastoma, melanoma, liver cancer, cervical carcinoma, ovarian cancer, renal cancer, and papilloma cell lines were each treated with trypsin-EDTA and cultured, followed by being seeded in each well of a 96 well plate. After 24 hours of treatment at constant temperature, the respective cells were treated with the candidate compound so that a final concentration became 0 to 2 μM. The treated cells were additionally cultured for 72 hours, and cell viability was measured by using an ATP detection method (CellTiter-Glo® Luminescent Cell Viability Assay, Promega).

The subject of experiment [2] is prostate cancer cell lines (e.g. DU145/TXR). The experiment can be described thus: Cell based assay, cell viability (CellTiter-Glo), prostate cancer cell lines. Conditions: Homo sapiens, 72 hours treatment, final concentration 0 to 2 μM. The protocol:
as §1
(In general: ATP-based viability assays read luminescence as a measure of living cells.)

The mark [3] stands for this setting: CWR22 cells, read-out: IC50, prostate cancer cell line CWR22.
Where [4] appears, read: DU-145, DU145/TXR cells, read-out: IC50, prostate cancer cell line DU145/TXR.
[5] abbreviates: DU-145, DU145 cells, read-out: IC50, prostate cancer cell line DU145.
Where [6] appears, read: LNcap cells, read-out: IC50, prostate cancer cell line LNcap.
Where [7] appears, read: PC-3 cells, read-out: IC50, prostate cancer cell line PC-3.

Where two headings read alike, the source gives them in different places. Some results are limits rather than exact numbers.

Turning to `CC(=O)c1c([S+](C)[O-])n(Cc2ccc(F)c(Cl)c2)c2c(Br)ccc(Cl)c2c1=O` (centres unmarked) [Compound 22, 3-acetyl-8-bromo-5-chloro-1-(3-chloro-4-fluorobenzyl)-2-(methylsulfinyl)quinolin-4(1H)-one], the IC50 in experiment [1], in experiment [2] (setting [3]), in experiment [2] (setting [4]), in experiment [2] (setting [5]), in experiment [2] (setting [6]) and in experiment [2] (setting [7]) was above 2000 nM each time.
In the case of `CC(=O)c1c([S+]([O-])c2ccccc2)[nH]c2c(Br)ccc(Cl)c2c1=O` (centres unmarked) [Compound 13, 3-acetyl-8-bromo-5-chloro-2-(phenylsulfinyl)quinolin-4(1H)-one], the IC50 in experiment [1], in experiment [2] (setting [3]), in experiment [2] (setting [4]), in experiment [2] (setting [5]) and in experiment [2] (setting [6]) was above 2000 nM throughout.
Turning to `CC(=O)c1c([S+]([O-])Cc2nonc2C)[nH]c2c(Br)ccc(Cl)c2c1=O` (centres unmarked) [Compound 106, 3-acetyl-8-bromo-5-chloro-2-(((4-methyl-1,2,5-oxadiazol-3-yl)methyl)sulfinyl)quinolin-4(1H)-one], the IC50 in experiment [1], in experiment [2] (setting [3]), in experiment [2] (setting [4]), in experiment [2] (setting [5]) and in experiment [2] (setting [6]) was above 2000 nM throughout.
Regarding `CC(=O)c1c([S+]([O-])Cc2ccc(S(F)(F)(F)(F)F)cc2F)[nH]c2c(Br)ccc(Cl)c2c1=O` (centres unmarked) [Compound 69, 3-acetyl-8-bromo-5-chloro-2-((2-fluoro-4-(pentafluoro-16-sulfanyl)benzyl)sulfinyl)quinolin-4(1H)-one], the IC50 in experiment [1] is 1130 nM; in experiment [2] (setting [3]), 1870 nM; in experiment [2] (setting [4]), 1110 nM; in experiment [2] (setting [5]), 1000 nM; in experiment [2] (setting [6]), above 2000 nM; in experiment [2] (setting [7]), 1300 nM.
On to `CC(=O)c1c(SCc2cccc(I)c2)[nH]c2c(Br)ccc(Cl)c2c1=O` [Compound 47, 3-acetyl-8-bromo-5-chloro-2-((3-iodobenzyl)thio)quinolin-4(1H)-one], for which the IC50 in experiment [1], in experiment [2] (setting [3]), in experiment [2] (setting [4]), in experiment [2] (setting [5]), in experiment [2] (setting [6]) and in experiment [2] (setting [7]) was above 2000 nM in each case.
Take `CC(=O)c1c(SCc2cccc(F)c2)[nH]c2c(Br)ccc(Cl)c2c1=O` [Compound 49, 3-acetyl-8-bromo-5-chloro-2-((3-fluorobenzyl)thio)quinolin-4(1H)-one]: the IC50 in experiment [1], in experiment [2] (setting [3]), in experiment [2] (setting [4]), in experiment [2] (setting [5]), in experiment [2] (setting [6]) and in experiment [2] (setting [7]) was above 2000 nM each time.
On to `CC(=O)c1c(Sc2ccccc2)[nH]c2c(Br)ccc(Cl)c2c1=O` [Compound 12, 3-acetyl-8-bromo-5-chloro-2-(phenylthio)quinolin-4(1H)-one], for which the IC50 in experiment [1], in experiment [2] (setting [3]), in experiment [2] (setting [4]), in experiment [2] (setting [5]), in experiment [2] (setting [6]) and in experiment [2] (setting [7]) was above 2000 nM throughout.
As for `Cc1cc(C[S+]([O-])c2[nH]c3c(Br)ccc(Cl)c3c(=O)c2C(=O)C2CC2)no1` (centres unmarked) [Compound 96, 8-bromo-5-chloro-3-(cyclopropanecarbonyl)-2-(((5-methylisoxazol-3-yl)methyl)sulfinyl)quinolin-4(1H)-one], the IC50 in experiment [1] is 750 nM; in experiment [2] (setting [3]), 1900 nM; in experiment [2] (setting [4]) it was 1770 nM; in experiment [2] (setting [5]) it was 1740 nM; in experiment [2] (setting [6]), above 2000 nM; in experiment [2] (setting [7]), above 2000 nM.
For `CC(=O)c1c([S+]([O-])Cc2cccc(I)c2)[nH]c2c(Br)ccc(Cl)c2c1=O` (centres unmarked) [Compound 48, 3-acetyl-8-bromo-5-chloro-2-((3-iodobenzyl)sulfinyl)quinolin-4(1H)-one], the IC50 was above 2000 nM in experiment [1]; above 2000 nM in experiment [2] (setting [3]); 1570 nM in experiment [2] (setting [4]); above 2000 nM in experiment [2] (setting [5]); above 2000 nM in experiment [2] (setting [6]).
As for `CC(=O)c1c(S/C=C\C(=O)O)[nH]c2c(Br)ccc(Cl)c2c1=O` [Compound 67, (Z)-3-((3-acetyl-8-bromo-5-chloro-4-oxo-1,4-dihydroquinolin-2-yl)thio)acrylic acid], the IC50 in experiment [1], in experiment [2] (setting [3]), in experiment [2] (setting [4]), in experiment [2] (setting [5]), in experiment [2] (setting [6]) and in experiment [2] (setting [7]) was above 2000 nM in each case.
For `CC(=O)c1c([S+]([O-])Cc2ccc(N)nc2)[nH]c2c(Br)ccc(Cl)c2c1=O` (centres unmarked) [Compound 100, 3-acetyl-2-(((6-aminopyridin-3-yl)methyl)sulfinyl)-8-bromo-5-chloroquinolin-4(1H)-one], the IC50 in experiment [1], in experiment [2] (setting [3]), in experiment [2] (setting [4]), in experiment [2] (setting [5]) and in experiment [2] (setting [6]) was above 2000 nM each time.
Turning to `COc1ccccc1Sc1[nH]c2c(Br)ccc(Cl)c2c(=O)c1C(C)=O` [Compound 14, 3-acetyl-8-bromo-5-chloro-2-((2-methoxyphenyl)thio)quinolin-4(1H)-one], the IC50 in experiment [1], in experiment [2] (setting [3]), in experiment [2] (setting [4]), in experiment [2] (setting [5]), in experiment [2] (setting [6]) and in experiment [2] (setting [7]) was above 2000 nM in each case.
For `CSc1c(C(C)=O)c(=O)c2cc(F)ccc2n1C` [Compound 7, 3-acetyl-6-fluoro-1-methyl-2-(methylthio)quinolin-4(1H)-one], the IC50 in experiment [1], in experiment [2] (setting [3]), in experiment [2] (setting [4]), in experiment [2] (setting [5]), in experiment [2] (setting [6]) and in experiment [2] (setting [7]) was above 2000 nM throughout.
In the case of `CC(=O)c1c(S(C)(=O)=O)n(S(=O)(=O)c2ccc(C(C)(C)C)cc2)c2c(Br)ccc(Cl)c2c1=O` [Compound 41, 3-acetyl-8-bromo-1-((4-(tert-butyl)phenyl)sulfonyl)-5-chloro-2-(methylsulfonyl)quinolin-4(1H)-one], the IC50 in experiment [1], in experiment [2] (setting [3]), in experiment [2] (setting [4]), in experiment [2] (setting [5]), in experiment [2] (setting [6]) and in experiment [2] (setting [7]) was above 2000 nM throughout.
As to `CSc1[nH]c2c(Br)ccc(Cl)c2c(=O)c1C(C)=O` [Compound 2, 3-acetyl-8-bromo-5-chloro-2-(methylthio)quinolin-4(1H)-one], the IC50 in experiment [1], in experiment [2] (setting [3]), in experiment [2] (setting [4]), in experiment [2] (setting [5]), in experiment [2] (setting [6]) and in experiment [2] (setting [7]) was above 2000 nM in each case.
In the case of `CC(=O)c1c(S(=O)(=O)Cc2ccccc2)nc2c(Br)ccc(Cl)c2c1O` [Compound 54, 1-(2-(benzylsulfonyl)-8-bromo-5-chloro-4-hydroxyquinolin-3-yl)ethan-1-one], the IC50 in experiment [1], in experiment [2] (setting [3]), in experiment [2] (setting [4]), in experiment [2] (setting [5]), in experiment [2] (setting [6]) and in experiment [2] (setting [7]) was above 2000 nM each time.
Turning to `CSc1c(C(C)=O)c(=O)c2c(Cl)ccc(Br)c2n1S(C)(=O)=O` [Compound 35, 3-acetyl-8-bromo-5-chloro-1-(methylsulfonyl)-2-(methylthio)quinolin-4(1H)-one], the IC50 in experiment [1], in experiment [2] (setting [3]), in experiment [2] (setting [4]), in experiment [2] (setting [5]), in experiment [2] (setting [6]) and in experiment [2] (setting [7]) was above 2000 nM each time.
As to `CC(=O)c1c([S+]([O-])Cc2ccccc2)nc2c(Br)ccc(Cl)c2c1O` (centres unmarked) [Compound 53, 1-(2-(benzylsulfinyl)-8-bromo-5-chloro-4-hydroxyquinolin-3-yl)ethan-1-one], the IC50 in experiment [1], in experiment [2] (setting [3]), in experiment [2] (setting [4]), in experiment [2] (setting [5]) and in experiment [2] (setting [6]) was above 2000 nM throughout.
For `CC(=O)c1c([S+]([O-])CC#N)[nH]c2c(Br)ccc(Cl)c2c1=O` (centres unmarked) [Compound 65, 2-((3-acetyl-8-bromo-5-chloro-4-oxo-1,4-dihydroquinolin-2-yl)sulfinyl)acetonitrile], the IC50 in experiment [1], in experiment [2] (setting [3]), in experiment [2] (setting [4]), in experiment [2] (setting [5]), in experiment [2] (setting [6]) and in experiment [2] (setting [7]) was above 2000 nM in each case.
Regarding `COc1cccc2[nH]c(SCc3ccc(S(F)(F)(F)(F)F)cc3)c(C(C)=O)c(=O)c12` [Compound 92, 3-acetyl-5-methoxy-2-((4-(pentafluoro--sulfanyl)benzyl)thio)quinolin-4(1H)-one], the IC50 in experiment [1], in experiment [2] (setting [3]), in experiment [2] (setting [4]), in experiment [2] (setting [5]), in experiment [2] (setting [6]) and in experiment [2] (setting [7]) was above 2000 nM throughout.
Consider `CSc1c(C(C)=O)c(=O)c2c(Cl)ccc(Br)c2n1S(=O)(=O)c1ccc(C(C)(C)C)cc1` [Compound 40, 3-acetyl-8-bromo-1-((4-(tert-butyl)phenyl)sulfonyl)-5-chloro-2-(methylthio)quinolin-4(1H)-one], for which the IC50 in experiment [1], in experiment [2] (setting [3]), in experiment [2] (setting [4]), in experiment [2] (setting [5]), in experiment [2] (setting [6]) and in experiment [2] (setting [7]) was above 2000 nM in each case.
As to `COc1ccccc1[S+]([O-])c1[nH]c2c(Br)ccc(Cl)c2c(=O)c1C(C)=O` (centres unmarked) [Compound 15, 3-acetyl-8-bromo-5-chloro-2-((2-methoxyphenyl)sulfinyl)quinolin-4(1H)-one], the IC50 in experiment [1] was above 2000 nM; in experiment [2] (setting [3]) it was above 2000 nM; in experiment [2] (setting [4]), 1880 nM; in experiment [2] (setting [5]) it was above 2000 nM; in experiment [2] (setting [6]), above 2000 nM.
With `CC(=O)c1c([S+](C)[O-])[nH]c2c(Cl)ccc(Cl)c2c1=O` (centres unmarked) [Compound 6, 3-acetyl-5,8-dichloro-2-(methylsulfinyl)quinolin-4(1H)-one], the IC50 in experiment [1] is 730 nM; in experiment [2] (setting [3]) it was 1990 nM; in experiment [2] (setting [4]) it was 1540 nM; in experiment [2] (setting [5]), 1800 nM; in experiment [2] (setting [6]), above 2000 nM; in experiment [2] (setting [7]), 1680 nM.
As for `Cc1cc(C[S+]([O-])c2[nH]c3c(Cl)ccc(Cl)c3c(=O)c2C(=O)c2ccccc2)no1` (centres unmarked) [Compound 88, 3-benzoyl-5,8-dichloro-2-(((5-methylisoxazol-3-yl)methyl)sulfinyl)quinolin-4(1H)-one], the IC50 in experiment [1], in experiment [2] (setting [3]), in experiment [2] (setting [4]), in experiment [2] (setting [5]) and in experiment [2] (setting [6]) was above 2000 nM in each case.
